{
  "source": "patent US9333240B2",
  "about": "“Compounds for improving nutritional status, cognition and survival” (YISSUM RESEARCH DEVELOPMENT COMPANY OF THE HEBREW …, priority 2005, dated 2016)",
  "key": {"[1]": {"test_system": "BrdU-immunoreactive cells in the dentate gyrus", "test": "BrdU labelling of newly generated cells in the dentate gyrus of mice", "assay_type": "in vivo", "settings": "25 nM AICAR once daily for 10 days vs saline", "method": "In order to determine what is “low level activation” varying doses of the AMPK pathway activator may be administered to test animals in the final formulation intended to be used in humans, together with Brd-U. Animals are than sacrificed and the number of BrdU-immunoreactive cells in the dentate gyrus is determined in order to measure the generation rate of new cells. Amounts that are capable of increasing the number of newly generated cells are considers as “therapeutically effective amounts” when converted, according to known criteria, to physiologically corresponding amounts in humans.\nThe function of AMPK activation in the hippocampus was evaluated. […] Mice were treated with bromodeoxyuridine (BrdU) and either saline or 25 nM AICAR (low level stimulation) once daily for 10 days. […] Next, behavioral testing was performed using the eight-arm maze to determine whether there was a concomitant improvement in cognition. […] (FIG. 1C)."}, "mice": {"test_system": "mice", "test": "Eight-arm maze, mice ad libitum or diet restricted", "assay_type": "in vivo", "method": "Control mice received food ad-libitum. Diet-restricted mice received a diet of 57 kCal/week/mouse (2.16 g/day/mouse) as 60% of the requirement, or 38 kCal/week/mouse (1.44 g/day/mouse) for 40%/DR. DR was carried out for 10 days. Behavioral test was performed using the eight-arm spatial maze during the second week of experiment. […] Mice were sacrificed by decapitation after the behavioral tests and the hippocampi were frozen at −70° C. The animals were placed in an eight-arm maze, which is a scaled-down version of that developed for rats (Randt et al, (1971) Science 172, 489-499; Ziv et al (1994) Neuroscience Lett, 170, 136-140). […] The mice were tested until they made entries into all eight arms or until they completed 24 entries, whichever came first. […] Maze performance was calculated each day for five consecutive days. Results were presented as area under the curve (AUC) utilizing the formula: (day 2+day 3+day 4+day 5)−4*(day 1)."}, "[2]": {"test_system": "norepinephrine and dopamine in the hippocampus", "test": "Hippocampal catecholamine measurements (HPLC-ECD)", "assay_type": "in vivo, mice", "settings": "AICAR 1-2 mM daily for 10 days", "method": "Control mice received food ad-libitum. Diet-restricted mice received a diet of 57 kCal/week/mouse (2.16 g/day/mouse) as 60% of the requirement, or 38 kCal/week/mouse (1.44 g/day/mouse) for 40%/DR. DR was carried out for 10 days. Behavioral test was performed using the eight-arm spatial maze during the second week of experiment. During the behavioral tests, half of the animals in each group were injected intraperitoneally (i.p) with AICAR (1-2 mM equal to 258-516 mg/kg) or leptin (1 mg/kg) and the other half with saline. Mice were sacrificed by decapitation after the behavioral tests and the hippocampi were frozen at -70° C. Catecholamines were measured as described previously ([…] et al (1996), Brain Res. 732, 133-144. The assays for dopamine and NE were performed by HPLC separation and detection using HPLC-ECD. Values are presented as a concentration (ng/mg tissue)."}, "Bcl-2, Bax, PARP": {"test_system": "Bcl-2, Bax, PARP", "test": "Hippocampal apoptosis proteins by RT-PCR and immunoblotting", "assay_type": "in vivo, mice", "settings": "AICAR treatment (1-2 mM), RT-PCR and immunoblotting", "method": "Total hippocampal RNA was extracted using […] reagent according to the manufacturer's instructions and reverse transcribed. Primers specific for OBRlong were […] NO: 1) and […] NO: 6), for […] NO: 2), and […] NO: 7), for BAX […] NO: 3) and […] NO: 8) for Bcl-2 […] NO: 4) and […] NO: 9) and for actin […] NO: 5) and […] NO: 10). […] Total hippocampal Protein was extracted using […] reagent. Aliquots of the clarified lysates containing […] were denatured in Laemmli sample buffer (6% SDS 30%, glycerol, 0.02% bromophenol blue, 200 mM Tris-HCl (pH 6.8), and 250 mM-mercaptoethanol, at 95° C. for 5 min. The samples were resolved by SDS-PAGE (10% acrylamide), and blotted onto nitrocellulose membrane. Non-specific binding in a Western blot analysis was prevented by immersing the membranes in blocking buffer (5% nonfat dry milk in Tris-buffer saline-Tween 20 (TBS-T)), for 2 h at room temperature. The membranes were then exposed to the indicated antibodies diluted 1:1000 for 1 h at room temperature. AMPK, phospho-AMPK and PARP were obtained from Cell Signaling. Bax, bcl-2 and actin were from Santa Cruz Biotechnology Inc. (Santa Cruz, Calif.). The blots were rinsed in TBS-T and then incubated with horseradish peroxidase-conjugated goat anti-mouse antibodies 1:10,000 for 1 h at room temperature. Antibody-antigen complexes were visualized by detecting enhanced chemiluminescence with X-ray film."}, "[3]": {"test_system": "differentiated PC-12 cells", "test": "Viable cell number of differentiated PC-12 cells", "assay_type": "cell-based", "settings": "AICAR 0.125 to 1.0 mM, 96 h", "method": "PC-12 cells were kindly provided by O. Meyuhas, Dept. of Biochem., Faculty of Medicine, Jerusalem. These cells were grown either in Dulbecco's modified Eagle's medium (DMEM) supplemented with 8% horse serum, 8% fetal bovine serum (FBS), glutamine, and gentamicin or with 1% horse serum, in the presence of nerve growth factor (NGF) (50 ng/ml), which causes the cells to differentiate. Murine leptin was provided by A. Gertler. AICAR was obtained from Toronto Research Chemicals (TRC). To confirm the cellular effects of AMPK in the hippocampus, in-vitro studies on PC-12 cells were also preformed."}, "PC-12 cells": {"test_system": "PC-12 cells", "test": "Annexin V FACS analysis of apoptosis in PC-12 cells", "assay_type": "cell-based", "settings": "AICAR, 48 h", "method": "Cells were grown in 60-mm plates and treated with AICAR for 48 h. Apoptosis was evaluated using the Annexin V FITC Detection Kit (Oncogene Research Products, Cambridge Mass.). Briefly, both attached and floating cells were collected, washed with cold PBS, re-suspended at a density of 5×10^5/ml in 0.5 ml DMEM, stained for annexin V and analyzed by flow cytometry. The apoptotic ratio at 48 h, was also evaluated, by FACS analysis."}},
  "data": [
    {"compound": "NC(=O)c1ncn([C@@H]2O[C@H](CO)[C@@H](O)[C@H]2O)c1N", "note": "[AICAR, 5-aminoimidazole-4-carboxamide ribonucleoside, reference compound]", "values": [
      {"measurement": "number of BrdU-immunoreactive cells in the dentate gyrus (generation rate of new cells)", "setting": "[1]", "value": "significantly increased"},
      {"measurement": "eight-arm maze performance", "setting": "mice; 25 nM AICAR (low level stimulation) vs controls", "value": "performed significantly better than the controls"},
      {"measurement": "eight-arm maze performance", "setting": "mice; high dose AICAR (1-2 mM) vs ad libitum group, similar to DR to 40%", "value": "significant deterioration in maze performance"},
      {"measurement": "dopamine concentrations", "setting": "[2]; p<0.05", "value": "elevating"},
      {"measurement": "norepinephrine (NE) concentrations", "setting": "[2]; p<0.05, 0.01 for the two dosages", "value": "decreased"},
      {"measurement": "Bax level", "setting": "Bcl-2, Bax, PARP", "value": "up-regulation"},
      {"measurement": "bcl-2 level", "setting": "Bcl-2, Bax, PARP", "value": "reducing"},
      {"measurement": "number of viable cells", "setting": "[3]", "value": "dose-dependent reduction in the number of viable cells, reaching almost total after 96 h"},
      {"measurement": "apoptotic cell death (Annexin V staining)", "setting": "PC-12 cells", "value": "induces apoptotic cell death in a dose-dependent manner"}
    ]}
  ]
}
